Experimental data published in patent US10376476B2, “Panicein compounds, compositions and uses thereof” (CENTRE NATIONAL DE LA RECHERCHE SCIENTIFIQUE, priority 2014, dated 2019).

Molecular target: T1, human Patched (hPtc) expressed in yeasts (Homo sapiens, UniProt Q13635)
T1 construct: MAP; expressed in transfected cells; host or cells: Saccharomyces cerevisiae K699
T1 sequence (Q13635 1-1447): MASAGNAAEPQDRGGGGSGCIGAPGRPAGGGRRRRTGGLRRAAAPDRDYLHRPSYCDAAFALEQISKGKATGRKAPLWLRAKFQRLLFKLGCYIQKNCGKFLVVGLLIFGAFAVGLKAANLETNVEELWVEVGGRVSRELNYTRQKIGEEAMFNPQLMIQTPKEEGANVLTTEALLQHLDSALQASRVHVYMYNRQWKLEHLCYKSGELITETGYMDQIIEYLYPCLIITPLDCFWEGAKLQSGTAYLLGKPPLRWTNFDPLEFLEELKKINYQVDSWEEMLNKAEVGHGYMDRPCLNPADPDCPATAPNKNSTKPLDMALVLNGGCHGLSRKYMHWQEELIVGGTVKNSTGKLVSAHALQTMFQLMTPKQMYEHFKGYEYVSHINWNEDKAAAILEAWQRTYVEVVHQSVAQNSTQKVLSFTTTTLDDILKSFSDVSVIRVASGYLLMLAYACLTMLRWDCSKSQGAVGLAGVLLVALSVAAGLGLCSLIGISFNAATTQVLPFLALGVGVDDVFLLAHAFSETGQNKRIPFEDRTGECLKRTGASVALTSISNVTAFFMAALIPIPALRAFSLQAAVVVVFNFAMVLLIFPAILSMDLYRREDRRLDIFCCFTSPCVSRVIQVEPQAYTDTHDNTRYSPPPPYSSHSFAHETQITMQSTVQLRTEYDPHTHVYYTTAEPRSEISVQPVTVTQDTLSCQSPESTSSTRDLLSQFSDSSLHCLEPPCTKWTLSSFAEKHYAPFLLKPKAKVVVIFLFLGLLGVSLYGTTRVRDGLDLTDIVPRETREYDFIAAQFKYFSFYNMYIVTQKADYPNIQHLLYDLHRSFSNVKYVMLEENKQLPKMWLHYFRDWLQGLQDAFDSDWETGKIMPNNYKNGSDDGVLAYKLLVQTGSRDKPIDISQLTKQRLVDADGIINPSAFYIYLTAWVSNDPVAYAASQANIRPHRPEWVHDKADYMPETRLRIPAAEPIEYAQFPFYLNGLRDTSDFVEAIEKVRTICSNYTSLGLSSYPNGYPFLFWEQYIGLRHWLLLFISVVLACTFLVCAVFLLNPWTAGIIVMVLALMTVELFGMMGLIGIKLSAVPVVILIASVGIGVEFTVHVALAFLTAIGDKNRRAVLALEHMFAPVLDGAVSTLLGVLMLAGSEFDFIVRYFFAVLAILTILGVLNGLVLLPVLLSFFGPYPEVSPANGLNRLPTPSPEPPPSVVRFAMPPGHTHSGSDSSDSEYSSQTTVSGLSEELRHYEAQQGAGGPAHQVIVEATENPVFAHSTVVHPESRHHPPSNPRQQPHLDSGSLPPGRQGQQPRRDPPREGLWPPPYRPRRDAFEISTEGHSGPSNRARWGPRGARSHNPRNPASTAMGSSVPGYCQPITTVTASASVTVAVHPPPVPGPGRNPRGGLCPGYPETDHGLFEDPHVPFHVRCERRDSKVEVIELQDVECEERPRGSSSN
Assay: Resistance of hPtc-expressing yeasts to other chemotherapeutic agents (yeast growth, absorbance 600 nm)
Type: cell-based
Settings: 10 μM paniceins; for inhibition of the resistance of yeasts to vemurafenib: 10 μM vemurafenib; for inhibition of the resistance of yeasts to cisplatine: 50 μM cisplatine; for inhibition of the resistance of yeasts to dacarbazine: 2 mM dacarbazine
Description: Paniceins were added at a final concentration of 10 μM to the yeast growth medium containing 2 mM of dacarbazine (A), 50 μM of cisplatine (B), or 10 μM of vemurafenib (C). The growth of hPtc-expressing-yeasts was measured by absorbance at 600 nm.
The expression of human Patched in yeasts confers to these yeasts the ability to grow in presence of other chemotherapeutic agents currently used to treat melanoma such as dacarbazine or cisplatine.

C/C(=C\Cc1cc(O)ccc1O)CCc1c(C)c(O)c(O)c(C=O)c1C [P2, Panicein C]
inhibits the resistance: inhibition of the resistance of yeasts to vemurafenib | inhibition of the resistance of yeasts to cisplatine | inhibition of the resistance of yeasts to dacarbazine

C/C(=C\Cc1cc(O)ccc1O)CCc1c(C)cc(O)c(C=O)c1C [P3, Panicein B3]
inhibits the resistance: inhibition of the resistance of yeasts to vemurafenib | inhibition of the resistance of yeasts to cisplatine | inhibition of the resistance of yeasts to dacarbazine

COc1cc(C)c(CC/C(C)=C/Cc2cc(O)ccc2O)c(C)c1C [P5, Panicein A hydroquinone]
inhibits the resistance: inhibition of the resistance of yeasts to vemurafenib | inhibition of the resistance of yeasts to cisplatine | inhibition of the resistance of yeasts to dacarbazine
